Measured values from the NIST ThermoML archive (doi:10.1021/je1002048).
Numbers after ± are expanded uncertainties.

What was measured:
[1] = Liquid; for Normal boiling temperature: Ebulliometric method (Recirculating still)
[2] = excess molar enthalpy (molar enthalpy of mixing); xn = mol fraction of the nth substance listed; details: 303.15 K, 101 kPa, Liquid, Calvet calorimetry

Structure (SMILES) | Normal boiling temperature [1] | excess molar enthalpy ([2]; x2 = 0.032) | excess molar enthalpy ([2]; x2 = 0.082) | excess molar enthalpy ([2]; x2 = 0.127) | excess molar enthalpy ([2]; x2 = 0.192) | excess molar enthalpy ([2]; x2 = 0.251) | excess molar enthalpy ([2]; x2 = 0.351) | excess molar enthalpy ([2]; x2 = 0.447) | excess molar enthalpy ([2]; x2 = 0.502) | excess molar enthalpy ([2]; x2 = 0.572) | excess molar enthalpy ([2]; x2 = 0.653) | excess molar enthalpy ([2]; x2 = 0.734) | excess molar enthalpy ([2]; x2 = 0.874) | mass density ([1]; 298.15 K, 101.33 kPa, Pycnometric method)
CCO [ethanol] | 78.2 ± 0.1 °C | – | – | – | – | – | – | – | – | – | – | – | – | –
c1ccncc1 [pyridine] + CCO | – | -0.000359 ± 0.000191 kcal/mol | -0.00153 ± 0.000191 kcal/mol | -0.00308 ± 0.000239 kcal/mol | -0.00545 ± 0.000311 kcal/mol | -0.00827 ± 0.000406 kcal/mol | -0.0122 ± 0.00055 kcal/mol | -0.0172 ± 0.000741 kcal/mol | -0.0185 ± 0.000789 kcal/mol | -0.0189 ± 0.000813 kcal/mol | -0.0152 ± 0.000669 kcal/mol | -0.0126 ± 0.000574 kcal/mol | -0.00598 ± 0.000311 kcal/mol | –
c1ccncc1 [pyridine] | 116 ± 0.1 °C | – | – | – | – | – | – | – | – | – | – | – | – | 980.8 ± 1 kg/m3
